Here are results for seven molecules from patent US8933101B2, “Thia(dia)zoles as fast dissociating dopamine 2 receptor antagonists” (Janssen Pharmaceutica NV, priority 2007, dated 2015).

Where a name gives a salt, the structure may show the parent alone.

Take `FC(F)(F)Oc1cccc(CN2CCC(Nc3nnc(C(F)(F)F)s3)CC2)c1`: the melting point worked out at 116.3 °C.
Molecule `Fc1cc(CN2CCC(Nc3nnc(C(F)(F)F)s3)CC2)ccc1C(F)(F)F` had a melting point of 130.2 °C.
`N#Cc1nnc(NC2CCN(Cc3ccc(F)c(F)c3)CC2)s1` gave a melting point of 199.4 °C.
In the case of `CN(c1nnc(C(F)(F)F)s1)C1CCN(Cc2cccc(F)c2)CC1`, the melting point was 80.5 °C.
`Fc1ccc(CN2CCC(Nc3nc(C(F)(F)F)cs3)CC2)cc1F` (as salt: hydrochloride): the melting point is 238 °C.
For `N#Cc1nnc(NC2CCN(Cc3cc(F)c(F)c(F)c3)CC2)s1`, the melting point came out at 211.3 °C.
`CN(c1nnc(C(F)(F)F)s1)C1CCN(Cc2ccc(F)cc2)CC1` returned a melting point of 85.8 °C.

As a reminder, the melting point is the temperature of the solid-liquid transition.
